# From ChEMBL document CHEMBL4673334, “In Vivo Biological Evaluation of a Synthetic Royleanone Derivative as a Promising Fast-Acting Trypanocidal Agent by Inducing Mitochondrial-Dependent Necrosis” (J Nat Prod, 2020)
# Active and inactive are the calls of the source. The rule behind the calls is not given here.
# Legend:
# Trypanosoma cruzi [1] = test: Antitrypanosomal activity against Trypanosoma cruzi MHOM/Pe/2011/Arequipa(DTU V) epimastigote form assessed as parasite growth inhibition incubated for 48 hrs by resazurin dye based assay; type: functional, organism-based
# Trypanosoma cruzi [2] = test: Antitrypanosomal activity against Trypanosoma cruzi TINF/CH/1956/Tulahuen (DTU VI) epimastigote form assessed as parasite growth inhibition incubated for 48 hrs by resazurin dye based assay; type: functional, organism-based
# Vero = test: Cytotoxicity against African green monkey Vero cells assessed as reduction in cell viability after 48 hrs by resazurin dye based assay; conditions: Chlorocebus sabaeus
# Trypanosoma cruzi [3] = test: Antitrypanosomal activity against Trypanosoma cruzi IRHOD/CO/2008/SN3 (DTU I) epimastigote form assessed as parasite growth inhibition incubated for 48 hrs by resazurin dye based assay; type: functional, organism-based
# [4] = Toxicity in BALB/c mouse infected with Trypanosomal Trypanosoma cruzi MHOM/Pe/2011/Arequipa(DTU V) assessed as reduction in weight at 20 mg/kg, po administered for 5 days starting at 9 days post infection and measured up to 145 days post infection; type: organism-based; conditions: in vivo, 120 h, time 5 day
# Trypanosoma cruzi [5] = test: Inhibition of nucleic acid level in Trypanosoma cruzi MHOM/Pe/2011/Arequipa(DTU V) epimastigote form at IC25 concentration after 72 hrs by Rho (FITC-A) staining based flow cytometric analysis; type: functional
# [6] = Toxicity in BALB/c mouse infected with Trypanosomal Trypanosoma cruzi MHOM/Pe/2011/Arequipa(DTU V) assessed as effect on urea level at 20 mg/kg, po administered for 5 days starting at 9 days post infection and measured after 2 days post treatment; type: organism-based; conditions: in vivo, 120 h, time 5 day
# [7] = Toxicity in BALB/c mouse infected with Trypanosomal Trypanosoma cruzi MHOM/Pe/2011/Arequipa(DTU V) assessed as effect on ALP level at 20 mg/kg, po administered for 5 days starting at 100 days post infection and measured after 2 days post treatment; type: organism-based; conditions: in vivo, 120 h, time 5 day
# [8] = Toxicity in BALB/c mouse infected with Trypanosomal Trypanosoma cruzi MHOM/Pe/2011/Arequipa(DTU V) assessed as effect on LDH level at 20 mg/kg, po administered for 5 days starting at 100 days post infection and measured after 2 days post treatment; type: organism-based; conditions: in vivo, 120 h, time 5 day
# Trypanosoma cruzi [9] = test: Inhibition of mitochondrial membrane potential in Trypanosoma cruzi MHOM/Pe/2011/Arequipa(DTU V) epimastigote form at IC25 concentration after 72 hrs by Rho (FITC-A) staining based flow cytometric analysis; type: functional
# [10] = Toxicity in BALB/c mouse infected with Trypanosomal Trypanosoma cruzi MHOM/Pe/2011/Arequipa(DTU V) assessed as reduction in survival at 20 mg/kg, po administered for 5 days starting at 9 days post infection and measured up to 145 days post infection; type: organism-based; conditions: in vivo, 120 h, time 5 day
# [11] = Toxicity in BALB/c mouse infected with Trypanosomal Trypanosoma cruzi MHOM/Pe/2011/Arequipa(DTU V) assessed as effect on ALT/GPT level at 20 mg/kg, po administered for 5 days starting at 9 days post infection and measured after 2 days post treatment; type: organism-based; conditions: in vivo, 120 h, time 5 day
# [12] = Toxicity in BALB/c mouse infected with Trypanosomal Trypanosoma cruzi MHOM/Pe/2011/Arequipa(DTU V) assessed as effect on urea level at 20 mg/kg, po administered for 5 days starting at 100 days post infection and measured after 2 days post treatment; type: organism-based; conditions: in vivo, 120 h, time 5 day
# [13] = Toxicity in BALB/c mouse infected with Trypanosomal Trypanosoma cruzi MHOM/Pe/2011/Arequipa(DTU V) assessed as effect on uric acid level at 20 mg/kg, po administered for 5 days starting at 100 days post infection and measured after 2 days post treatment; type: organism-based; conditions: in vivo, 120 h, time 5 day
# Trypanosoma cruzi [14] = test: Antitrypanosomal activity against Trypanosoma cruzi MHOM/Pe/2011/Arequipa(DTU V) amastigote form infected in BALB/c mouse assessed as parasite free organ tissue ratio at 20 mg/kg, po administered for 5 days starting at 9 days post infection and measured up to 145 days post infection by PCR analysis relative to control; type: functional; conditions: time 5 day
# [15] = Toxicity in BALB/c mouse infected with Trypanosomal Trypanosoma cruzi MHOM/Pe/2011/Arequipa(DTU V) assessed as effect on LDH level at 20 mg/kg, po administered for 5 days starting at 9 days post infection and measured after 2 days post treatment; type: organism-based; conditions: in vivo, 120 h, time 5 day
# Trypanosoma cruzi [16] = test: Antitrypanosomal activity against Trypanosoma cruzi MHOM/Pe/2011/Arequipa(DTU V) amastigote form infected in BALB/c mouse assessed as reactivation parasitaemia at 20 mg/kg, po administered for 5 days starting at 100 days post infection and measured up to 145 days post infection relative to control; type: functional; conditions: time 5 day
# Trypanosoma cruzi [17] = test: Antitrypanosomal activity against Trypanosoma cruzi MHOM/Pe/2011/Arequipa(DTU V) amastigote form infected in BALB/c mouse assessed as reduction in parasitaemia at 20 mg/kg, po for 5 days and measured after 55 days post infection; type: functional, organism-based; conditions: time 5.0 day
# [18] = Toxicity in BALB/c mouse infected with Trypanosomal Trypanosoma cruzi MHOM/Pe/2011/Arequipa(DTU V) assessed as effect on total bilirubin level at 20 mg/kg, po administered for 5 days starting at 100 days post infection and measured after 2 days post treatment; type: organism-based; conditions: in vivo, 120 h, time 5 day
# [19] = Toxicity in BALB/c mouse infected with Trypanosomal Trypanosoma cruzi MHOM/Pe/2011/Arequipa(DTU V) assessed as effect on uric acid level at 20 mg/kg, po administered for 5 days starting at 9 days post infection and measured after 2 days post treatment; type: organism-based; conditions: in vivo, 120 h, time 5 day
# [20] = Toxicity in BALB/c mouse infected with Trypanosomal Trypanosoma cruzi MHOM/Pe/2011/Arequipa(DTU V) assessed as effect on ALP level at 20 mg/kg, po administered for 5 days starting at 9 days post infection and measured after 2 days post treatment; type: organism-based; conditions: in vivo, 120 h, time 5 day
# [21] = Toxicity in BALB/c mouse infected with Trypanosomal Trypanosoma cruzi MHOM/Pe/2011/Arequipa(DTU V) assessed as effect on CK-MB level at 20 mg/kg, po administered for 5 days starting at 9 days post infection and measured after 2 days post treatment; type: organism-based; conditions: in vivo, 120 h, time 5 day
# [22] = Toxicity in BALB/c mouse infected with Trypanosomal Trypanosoma cruzi MHOM/Pe/2011/Arequipa(DTU V) assessed as reduction in survival at 20 mg/kg, po administered for 5 days starting at 100 days post infection and measured up to 145 days post infection; type: organism-based; conditions: in vivo, 120 h, time 5 day
# [23] = Toxicity in BALB/c mouse infected with Trypanosomal Trypanosoma cruzi MHOM/Pe/2011/Arequipa(DTU V) assessed as effect on CK-MB level at 20 mg/kg, po administered for 5 days starting at 100 days post infection and measured after 2 days post treatment; type: organism-based; conditions: in vivo, 120 h, time 5 day
# [24] = Toxicity in BALB/c mouse infected with Trypanosomal Trypanosoma cruzi MHOM/Pe/2011/Arequipa(DTU V) assessed as effect on […] level at 20 mg/kg, po administered for 5 days starting at 100 days post infection and measured after 2 days post treatment; type: organism-based; conditions: in vivo, 120 h, time 5 day
# [25] = Toxicity in BALB/c mouse infected with Trypanosomal Trypanosoma cruzi MHOM/Pe/2011/Arequipa(DTU V) assessed as effect on total bilirubin level at 20 mg/kg, po administered for 5 days starting at 9 days post infection and measured after 2 days post treatment; type: organism-based; conditions: in vivo, 120 h, time 5 day
# [26] = Toxicity in BALB/c mouse infected with Trypanosomal Trypanosoma cruzi MHOM/Pe/2011/Arequipa(DTU V) assessed as effect on AST/GOT level at 20 mg/kg, po administered for 5 days starting at 9 days post infection and measured after 2 days post treatment; type: organism-based; conditions: in vivo, 120 h, time 5 day
# Trypanosoma cruzi [27] = test: Antitrypanosomal activity against Trypanosoma cruzi MHOM/Pe/2011/Arequipa(DTU V) amastigote form infected in BALB/c mouse assessed as reactivation parasitaemia at 20 mg/kg, po administered for 5 days starting at 9 days post infection and measured up to 145 days post infection relative to control; type: functional; conditions: time 5 day
# Trypanosoma cruzi [28] = test: Antitrypanosomal activity against Trypanosoma cruzi MHOM/Pe/2011/Arequipa(DTU V) amastigote form infected in Vero cells assessed as parasite growth inhibition at 50 uM incubated for 72 hrs by Giemsa-staining based assay relative to control; type: functional
# [29] = Toxicity in BALB/c mouse infected with Trypanosomal Trypanosoma cruzi MHOM/Pe/2011/Arequipa(DTU V) assessed as reduction in weight at 20 mg/kg, po administered for 5 days starting at 100 days post infection and measured up to 145 days post infection; type: organism-based; conditions: in vivo, 120 h, time 5 day
# [30] = Toxicity in BALB/c mouse infected with Trypanosomal Trypanosoma cruzi MHOM/Pe/2011/Arequipa(DTU V) assessed as effect on ALT/GPT level at 20 mg/kg, po administered for 5 days starting at 100 days post infection and measured after 2 days post treatment; type: organism-based; conditions: in vivo, 120 h, time 5 day
# Trypanosoma cruzi [31] = test: Antitrypanosomal activity against Trypanosoma cruzi MHOM/Pe/2011/Arequipa(DTU V) amastigote form infected in BALB/c mouse assessed as parasite free organ tissue ratio at 20 mg/kg, po administered for 5 days starting at 100 days post infection and measured up to 145 days post infection by PCR analysis relative to control; type: functional; conditions: time 5 day
compound,measurement,setting,value
COC(=O)[C@]1(C)CCC[C@]2(C)c3ccc(C(C)C)c(O)c3CC[C@@H]12,IC50,Trypanosoma cruzi [1],75 µM
same,IC50,Trypanosoma cruzi [2],71.2 µM
same,IC50,Vero,102 µM
same,IC50,Trypanosoma cruzi [3],103 µM
CC(C)c1cc2c(cc1O)[C@@]1(C)CCC[C@@]3(C)CO[C@@H](C2=O)[C@@H]31,IC50,Trypanosoma cruzi [1],51 µM
same,IC50,Trypanosoma cruzi [2],62.8 µM
same,IC50,Vero,952 µM
same,IC50,Trypanosoma cruzi [3],60.8 µM
CC(C)C1=CC2=C[C@@H]3OC(=O)[C@]4(C)CCC=C(C2=C(O)C1=O)[C@]34C,IC50,Trypanosoma cruzi [1],75.9 µM
same,IC50,Trypanosoma cruzi [2],95.3 µM
same,IC50,Vero,222 µM
same,IC50,Trypanosoma cruzi [3],110 µM
CC(C)C1=CC(=O)C2=C(C=C[C@H]3C(C)(C)CCC[C@]23C)C1=O,IC50,Trypanosoma cruzi [1],19 µM
same,IC50,Trypanosoma cruzi [2],19.2 µM
same,IC50,Vero,26.1 µM
same,IC50,Trypanosoma cruzi [3],13.5 µM
O=C(Cn1ccnc1[N+](=O)[O-])NCc1ccccc1 [BENZNIDAZOLE],Activity,[4],Non-Toxic
same,inhibition,Trypanosoma cruzi [5],22.4%
same,Activity,[6],Non-Toxic
same,Activity,[7],Non-Toxic
same,Activity,[8],Non-Toxic
same,inhibition,Trypanosoma cruzi [9],35.4%
same,Activity,[10],Non-Toxic
same,Activity,[11],Non-Toxic
same,Activity,[12],Non-Toxic
same,Activity,[13],Non-Toxic
same,Activity,Trypanosoma cruzi [14],28.5%
same,Activity,[15],Non-Toxic
same,IC50,Vero,80.4 µM
same,Activity,Trypanosoma cruzi [16],68.3%
same,Activity,Trypanosoma cruzi [17],Active
same,Activity,[18],Non-Toxic
same,Activity,[19],Non-Toxic
same,Activity,[20],Non-Toxic
same,Activity,[21],Non-Toxic
same,Activity,[22],Non-Toxic
same,Activity,[23],Non-Toxic
same,Activity,[24],Non-Toxic
same,Activity,[25],Non-Toxic
same,Activity,[26],Non-Toxic
same,Activity,Trypanosoma cruzi [27],81.5%
same,inhibition at 50 µM,Trypanosoma cruzi [28],100%
same,Activity,[29],Non-Toxic
same,Activity,[30],Non-Toxic
same,Activity,Trypanosoma cruzi [31],42.9%
CC(C)c1cc2c(cc1O)[C@@]1(C)CCC[C@@](C)(C=O)[C@@H]1CC2 [18-OXOFERRUGINOL],IC50,Trypanosoma cruzi [1],59.5 µM
same,IC50,Trypanosoma cruzi [2],48.7 µM
same,IC50,Vero,106 µM
same,IC50,Trypanosoma cruzi [3],63 µM
CC(C)c1cc2c(cc1O)[C@@]1(C)CCC[C@@]3(C)CO[C@@H]([C@@H]2O)[C@@H]31,IC50,Trypanosoma cruzi [1],31.1 µM
same,IC50,Trypanosoma cruzi [2],34.6 µM
same,IC50,Vero,763 µM
same,IC50,Trypanosoma cruzi [3],36.7 µM
CC(C)c1cc2c(cc1O)[C@@]1(C)CCCC(C)(C)[C@@]1(O)OC2=O,IC50,Trypanosoma cruzi [1],40.5 µM
same,IC50,Trypanosoma cruzi [2],72.8 µM
same,IC50,Vero,480 µM
same,IC50,Trypanosoma cruzi [3],91.2 µM
